Measurements from patent publication EP1537858A1, “Drug delivery vehicles and uses thereof” (Vectron Therapeutics AG, priority 2003, dated 2005).

Experiments:
[1] = Pharmacokinetics of doxorubicin in blood after i.v. injection (HPLC); assay type: in vivo; settings: i.v. tail vein, nude mice, blood doxorubicin by HPLC
Procedure: AVE9-dox and AVE95-dox were injected i.v. into the tail veins of nude mice and blood concentration of doxorubicin was determined by HPLC at varying time points. In this experiment we included unencapsulated doxorubicin as well as doxorubicin encapsulated into pegylated "stealth liposomes" (Doxil®). Compared to AVE9-dox AVE95-dox caused a prolonged serum residence time of doxorubicin (50% value of 11 min for AVE9-dox versus 23 min for AVE95-dox). Unencapsulated dox was rapidly cleared from the circulation (50% value = < 3 min). In contrast, after injection of Doxil® more than 50% of initial doxorubicin was present in the blood after 6 hours (Fig. 4). […] Doxorubicin concentrations in the liver and spleen were increased 3-fold after applying AVE95-dox compared to free doxorubicin.

[2] = system: C26 murine colon carcinoma; assay: Pharmacodynamics of doxorubicin liposomes in C26 tumor model; assay type: in vivo, nude mice
Procedure: For further studies pharmacodynamic experiments in a C26 murine colon carcinoma model were performed. For this purpose tumor cells were injected subcutaneously into nude mice. After tumors had reached a size of approximately 50-100 mm^3 tumor-bearing mice were treated with doxorubicin-loaded liposomes injecting a doxorubicin dose of 4 mg/kg body weight at days 1, 3 and 6.
In a first experiment AVE9-dox and AVE95-dox (see example 10) were compared to unencapsulated doxorubicin. In this experiment we observed reduced tumor growth and a prolonged survival time for animals treated with AVE95-dox compared to animals treated with AVE9-dox or free doxorubicin. […] The difference between free doxorubicin and AVE95-dox at day 12 was statistically significant (p = 0.05). This was also reflected by the mean survival time which was 20 days for AVE95-dox treated animals, 16 days for AVE9-dox treated animals, 14 days for doxorubicin-treated animals, and 12 days for untreated animals.
In a second experiment free doxorubicin was compared to AVE95-dox, when administered either at 4 or at 8 mg/kg body weight to C26-tumor-bearing mice. […] In contrast, tumor growth was further reduced using 8 mg/kg AVE95-dox compared to […] AVE95-dox.
In a third experiment AVE95-dox was compared to Doxil® for the treatment of C26 tumors applying a dose of 4 mg/kg.
In a final set of experiments, AVE95-dox liposomes were compared to a AVE95-based formulation containing varying sphingomyelin concentrations. Firstly, AVE95-dox was compared to the same formulation in which sphingomyelin was substituted by phosphatidylcholine (AVE95-0SM-dox). […] Secondly, AVE95-dox was compared to liposomes consisting of 50 mol% cholesterol, 30 mol% sphingomyelin and 20 mol% phosphatidylcholine. Thus, this formulation contained the same cholesterol concentration but approximately twice as much sphingomyelin as AVE95 liposomes.

[3] = Pharmacokinetics and organ accumulation of mitoxantrone after i.v. injection (HPLC); assay type: in vivo; settings: i.v. tail vein, nude mice, blood mitoxantrone by HPLC
Procedure: AVE95-MXR liposomes were injected i.v. into the tail veins of nude mice and blood concentration of mitoxantrone was determined by HPLC at varying time points. In this experiment we included unencapsulated mitoxantrone. AVE95-MXR caused a prolonged serum residence time of mitoxantrone (50% value = 110 min) compared to unencapsulated mitoxantrone which was rapidly cleared from circulation (50% value = < 3 min) (Fig. 8). […] Mitoxantrone concentrations in the liver and spleen were similar to free mitoxantrone.

[4] = system: C26 murine colon carcinoma; assay: Pharmacodynamics of mitoxantrone liposomes in C26 tumor model; assay type: in vivo, nude mice; settings: mitoxantrone dose of 4 mg/kg at days 0, 2 and 5
Procedure: Efficacy of AVE95-MRX was analyzed in a C26 murine colon carcinoma model. For this purpose tumor cells were injected subcutaneously into nude mice. After tumors had reached a size of approximately 50-100 mm^3, tumor-bearing mice were treated with mitoxantrone-loaded liposomes injecting a mitoxantrone dose of […] or 4 mg/kg body weight at days 0, 2 and 5. Unencapsulated mitoxantrone was included in these experiments. […] However, at this dose tumor growth was further reduced for AVE95-encapsulated mitoxantrone compared to free mitoxantrone (Fig. 9). This improved efficacy compared to free mitoxantrone was also observed at a mitoxantrone concentration of […].

SMILES | 50% value (serum residence time of doxorubicin) [1] [min] | tumor growth compared to untreated control animals ([2]; 4 mg/kg at days 1, 3 and 6, first experiment) | lethality ([2]; at 8 mg/ml (so in the source), C26-tumor-bearing mice) | mean survival time ([2]; doxorubicin 4 mg/kg body weight at days 1, 3 and 6, first experiment) [days] | tumor growth at 8 mg/kg compared to 4 mg/kg ([2]; second experiment, 4 or 8 mg/kg body weight) | 50% value (serum residence time of mitoxantrone) [3] [min] | inhibition of tumor growth [4]
COc1cccc2c1C(=O)c1c(O)c3c(c(O)c1C2=O)C[C@@](O)(C(=O)CO)C[C@@H]3O[C@H]1C[C@H](N)[C@H](O)[C@H](C)O1 [doxorubicin] | < 3 | reduced tumor growth compared to untreated control animals | increased lethality | 14 | No differences in tumor growth | – | –
O=C1c2c(O)ccc(O)c2C(=O)c2c(NCCNCCO)ccc(NCCNCCO)c21 [mitoxantrone, Mitoxantrone] | – | – | – | – | – | < 3 | strong inhibition of tumor growth
